Here are results for 38 compounds from patent US9938222B2 (BRISTOL-MYERS SQUIBB COMPANY, priority 2014, dated 2018).

The target in this assay is human GPR120 (Homo sapiens (Human), UniProt Q5NUL3). Briefly: GPR120 pERK AlphaScreen SureFire Assay (human GPR120 pERK assay). In kind it is cell-based. Particulars: CHO cells stably transfected with short form of human GPR120. The gist of the method: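 CHOA12 cells stably expressing short-form human GPR120, serum-starved 2 h, then stimulated 7 min at 37° C with compound (33.33 μM to 0.56 nM, 11-point). Phospho-ERK1/2 read by AlphaScreen SureFire in lysates. Activation scaled between DMSO and 50 μM linolenic acid; EC50 from a 4-parameter logistic fit.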
Chain of human GPR120 (Q5NUL3 whole entry): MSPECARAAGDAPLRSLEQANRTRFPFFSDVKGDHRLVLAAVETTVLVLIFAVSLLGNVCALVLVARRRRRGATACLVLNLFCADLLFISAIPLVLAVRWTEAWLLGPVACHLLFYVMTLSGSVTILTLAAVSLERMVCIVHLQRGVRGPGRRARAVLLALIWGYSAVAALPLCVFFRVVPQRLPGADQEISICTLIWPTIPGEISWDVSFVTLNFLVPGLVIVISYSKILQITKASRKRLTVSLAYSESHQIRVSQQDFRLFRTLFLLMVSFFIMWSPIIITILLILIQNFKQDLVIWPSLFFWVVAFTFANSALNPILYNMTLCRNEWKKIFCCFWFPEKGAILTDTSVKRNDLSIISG
On the technique in general: Alpha assays give light when donor and acceptor beads are brought close together.
Compound `CC(C)Oc1cc(F)cc(-c2ccc(OC[C@@H]3C[C@H]3C(=O)O)cc2F)c1` (racemic) [Example 60, Trans-2-(((2,3′-difluoro-5′-isopropoxy-[1,1′-biphenyl]-4-yl)oxy)methyl) cyclopropanecarboxylic acid] came in with an EC50 of 570 nM.
The value for `CC1(C)Cc2c(cc(F)cc2-c2ccc(OC[C@@H]3C[C@H]3C(=O)O)cc2)O1` (racemic) [Example 20, Trans-2-((4-(6-fluoro-2,2-dimethyl-2,3-dihydrobenzofuran-4-yl)phenoxy)methyl) cyclopropanecarboxylic acid] was 990 nM; that for `CC(C)Oc1ccc(F)c(-c2ccc(OC[C@@H]3C[C@H]3C(=O)O)cc2)c1` (single isomer, unassigned) [Example 3] was 470 nM; that for `CC(C)Oc1ccc(F)c(-c2ccc(CC[C@H]3C[C@H]3C(=O)O)cc2)c1` (single isomer, unassigned) [Example 16] was 420 nM.
Then `Cc1nn(Cc2ccccc2)cc1-c1ccc(OC[C@@H]2C[C@H]2C(=O)O)cc1` (racemic) [Example 84, Trans-2-((4-(1-benzyl-3-methyl-1H-pyrazol-4-yl)phenoxy)methyl) cyclopropanecarboxylic acid], with 4310 nM.
Compound `Cc1nc(-c2ccccc2)c(-c2ccc(CC[C@@H]3C[C@H]3C(=O)O)cc2)s1` (single isomer, unassigned) [Example 27, Trans-2-(4-(2-methyl-4-phenylthiazol-5-yl)phenethyl)cyclopropanecarboxylic acid] had an EC50 of 1230 nM.
Then `O=C(O)[C@H]1CC1COc1ccc(-c2cc(Oc3cccc(F)c3)cnc2Cl)cc1` (some centres unmarked) [Example 113], with 120 nM.
Then `O=C(O)[C@@H]1C[C@H]1COc1ccc(-c2cc(Oc3cccc(F)c3)ccc2F)cc1` (racemic) [Example 42, Trans-2-(((2′-fluoro-5′-(3-fluorophenoxy)-[1,1′-biphenyl]-4-yl)oxy)methyl)cyclopropanecarboxylic acid], with 180 nM.
`CC(C)Oc1ccc(F)c(-c2ccc(OC[C@H]3C[C@@H]3C(=O)O)c(F)c2)c1` (single isomer, unassigned) [Example 64] gave an EC50 of 290 nM.
Then `CC(C)Oc1ccc(F)c(-c2ccc(CC[C@@H]3C[C@H]3C(=O)O)cc2)c1` (racemic) [Example 30, Trans-2-(2-(2′-fluoro-5′-isopropoxy-[1,1′-biphenyl]-4-yl)ethyl)cyclopropanecarboxylic acid], with 320 nM; and `CC(C)Oc1ccc(F)c(-c2ccc(CC[C@]3(F)C[C@H]3C(=O)O)cc2)c1` (racemic) [Example 39, Cis-2-fluoro-2-(2-(2′-fluoro-5′-isopropoxy-[1,1′-biphenyl]-4-yl)ethyl) cyclopropanecarboxylic acid], with 2020 nM.
The value for `Cc1ccc(Oc2ccc(F)c(-c3ccc(OCC4C[C@H]4C(=O)O)cc3)c2)cn1` (some centres unmarked) [Example 115] was 190 nM; that for `O=C(O)[C@@H]1C[C@H]1COc1ccc(-c2cc(OC3CCC3)ccc2F)cc1` (racemic) [Example 94, Trans-2-(((5′-cyclobutoxy-2′-fluoro-[1,1′-biphenyl]-4-yl)oxy)methyl) cyclopropanecarboxylic acid] was 140 nM; that for `CC(C)Oc1cccc(-c2ccc(OC[C@@H]3C[C@H]3C(=O)O)cc2)c1` (racemic) [Example 73, Trans-2-(((3′-isopropoxy-[1,1′-biphenyl]-4-yl)oxy)methyl) cyclopropanecarboxylic acid] was 1380 nM.
Then `CC(C)COc1cc(F)cc(-c2ccc(OC[C@@H]3C[C@H]3C(=O)O)cc2)c1` (racemic) [Example 72, Trans-2-(((3′-fluoro-5′-isobutoxy-[1,1′-biphenyl]-4-yl)oxy)methyl) cyclopropanecarboxylic acid], with 1550 nM.
`Cc1ccc(Oc2ccc(F)c(-c3ccc(OC[C@@H]4C[C@H]4C(=O)O)c(F)c3)c2)cn1` (racemic) [Example 103, Trans-2-(((2′,3-difluoro-5′-((6-methylpyridin-3-yl)oxy)-[1,1′-biphenyl]-4-yl)oxy)methyl)cyclopropanecarboxylic acid]: the midpoint of the response, the EC50, lay at 170 nM.
The value for `CC(C)Oc1ccc(F)c(-c2ccc(CC[C@H]3C[C@H]3C(=O)O)cc2)c1` (racemic) [Example 15, (Cis)-(+/−)-2-(2-(2′-fluoro-5′-isopropoxy-[1,1′-biphenyl]-4-yl)ethyl) cyclopropanecarboxylic acid] was 1690 nM; that for `O=C(O)[C@@H]1C[C@H]1COc1ccc(-c2cc(Oc3cccc(F)c3)ccc2F)cc1F` (relative stereo) [Example 96, Trans-2-(((2′,3-difluoro-5′-(3-fluorophenoxy)-[1,1′-biphenyl]-4-yl)oxy)methyl) cyclopropanecarboxylic acid] was 180 nM; that for `CC(C)Oc1ccc(F)c(-c2ccc(CC[C@@H]3C[C@H]3C(=O)O)cc2)c1` (single isomer, unassigned) [Example 31] was 640 nM.
The value for `CC(C)Oc1ccc(F)c(-c2ccc(CC[C@@H]3C[C@@H]3C(=O)O)cc2)c1` (single isomer, unassigned) [Example 17] was 200 nM; that for `CC(C)Oc1ccc(Cl)c(-c2ccc(CC[C@@H]3C[C@H]3C(=O)O)cc2)c1` (relative stereo) [Example 133, Trans-2-(2-(2′-chloro-5′-isopropoxy-[1,1′-biphenyl]-4-yl)ethyl) cyclopropanecarboxylic acid] was 1860 nM.
Then `CC(C)Oc1ccc(F)c(-c2ccc(OC[C@@H]3C[C@H]3C(=O)O)cc2)c1` (racemic) [Example 1, Trans-2-(((2′-fluoro-5′-isopropoxy-[1,1′-biphenyl]-4-yl)oxy)methyl) cyclopropanecarboxylic acid], with 370 nM; and `COc1ccc(F)c(-c2ccc(CC[C@@H]3C[C@H]3C(=O)O)cc2)c1` (relative stereo) [Example 80, Trans-2-(2-(2′-fluoro-5′-methoxy-[1,1′-biphenyl]-4-yl)ethyl) cyclopropanecarboxylic acid], with 3260 nM.
Compound `CC(C)Oc1ccc(Cl)c(-c2ccc(OC[C@@H]3C[C@H]3C(=O)O)cc2)c1` (racemic) [Example 119, Trans-2-(((2′-chloro-5′-isopropoxy-[1,1′-biphenyl]-4-yl)oxy)methyl) cyclopropanecarboxylic acid] gave an EC50 of 510 nM.
Then `CCOc1ccc(F)c(-c2ccc(OC[C@@H]3C[C@H]3C(=O)O)cc2)c1` (racemic) [Example 68, Trans-2-(((5′-ethoxy-2′-fluoro-[1,1′-biphenyl]-4-yl)oxy)methyl) cyclopropanecarboxylic acid], with 660 nM; and `CC(C)Oc1cc(F)cc(-c2ccc(OC[C@@H]3C[C@H]3C(=O)O)cc2)c1` (racemic) [Example 55, Trans-2-(((3′-fluoro-5′-isopropoxy-[1,1′-biphenyl]-4-yl)oxy)methyl) cyclopropanecarboxylic acid], with 1060 nM; and `CC(C)Oc1cc(Cl)cc(-c2ccc(OC[C@H]3C[C@@H]3C(=O)O)c(F)c2)c1` (racemic) [Example 12, Trans-2-(((3′-chloro-3-fluoro-5′-isopropoxy-[1,1′-biphenyl]-4-yl)oxy)methyl) cyclopropanecarboxylic acid], with 310 nM.
Then `CC1(C)Cc2cc(Cl)cc(-c3ccc(CC[C@@H]4C[C@H]4C(=O)O)cc3)c2O1` (single isomer, unassigned) [Example 26], with 1720 nM; and `O=C(O)C1CC1COc1ccc(-c2cc(OC(F)(F)F)ccc2F)cc1` (single isomer, unassigned) [Example 52, Trans-2-(((2′-fluoro-5′-(trifluoromethoxy)-[1,1′-biphenyl]-4-yl)oxy)methyl)cyclopropanecarboxylic acid], with 620 nM.
Then `CC(C)Oc1ccc(F)c(-c2ccc(OC[C@@H]3C[C@H]3C(=O)O)c(Cl)c2)c1` (racemic) [Example 45, Trans-2-(((3-chloro-2′-fluoro-5′-isopropoxy-[1,1′-biphenyl]-4-yl)oxy)methyl)cyclopropanecarboxylic acid], with 220 nM.
Compound `Cc1ccc(Oc2ccc(F)c(-c3ccc(OCC4C[C@@H]4C(=O)O)cc3)c2)cn1` (some centres unmarked) [Example 116] registered an EC50 of 90 nM.
The value for `Cc1ccc(Oc2ccc(F)c(-c3ccc(OCC4CC4C(=O)O)c(F)c3)c2)cc1F` (single isomer, unassigned) [Example 102, Trans-2-(((2′,3-difluoro-5′-(3-fluoro-4-methylphenoxy)-[1,1′-biphenyl]-4-yl)oxy)methyl)cyclopropanecarboxylic acid] was 270 nM; that for `O=C(O)[C@@H]1C[C@@H]1COc1ccc(-c2cc(Oc3ccccc3)ccc2F)cc1` (racemic) [Example 4, Cis-2-(((2′-fluoro-5′-phenoxy-[1,1′-biphenyl]-4-yl)oxy)methyl)cyclopropanecarboxylic acid] was 470 nM.
The value for `O=C(O)[C@@H]1C[C@H]1COc1ccc(-c2cc(Oc3ccccc3)ccc2F)cc1F` (single isomer, unassigned) [Example 10] was 80 nM; that for `CC(C)Oc1ccc(Cl)c(-c2ccc(OC[C@@H]3C[C@H]3C(=O)O)c(F)c2)c1` (racemic) [Example 18, Trans-2-(((2′-chloro-3-fluoro-5′-isopropoxy-[1,1′-biphenyl]-4yl)oxy)methyl) cyclopropanecarboxylic acid] was 210 nM.
Regarding `CC(C)Oc1cc(F)c(F)c(-c2ccc(OC[C@@H]3C[C@H]3C(=O)O)c(F)c2)c1` (single isomer, unassigned) [Example 66], the EC50 worked out at 320 nM.
Then `Cc1ccc(Oc2cc(F)c(F)c(-c3ccc(OCC4CC4C(=O)O)c(F)c3)c2)cc1F` (racemic) [Example 107], with 310 nM; and `Cc1ccc(Oc2ccc(F)c(-c3ccc(OCC4CC4C(=O)O)c(F)c3)c2)cc1F` (single isomer, unassigned) [Example 101, Trans-2-(((2′,3-difluoro-5′-(3-fluoro-4-methylphenoxy)-[1,1′-biphenyl]-4-yl)oxy)methyl)cyclopropanecarboxylic acid], with 130 nM.

A word on the EC50: it is the concentration giving half of the maximal effect. A higher EC50 goes with a need for much substance.
